Data on 23 compounds can be found in PubChem BioAssay AID330 (DTP/NCI, 2004).

“And” between values parts separate entries of the source, which are not always exact repeats. Equal entries are not always repeated. Toxic doses and inconclusive results are not listed.

This assay relates to P388 leukemia ip, CD2F1 mice, survival T/C. The assay is described as follows: NCI In Vivo Anticancer Drug Screen. Data for tumor model P388 Leukemia (intraperitoneal) in CD2F1 (CDF1) mice. The settings on record: endpoint: median survival time, higher = longer survival. In outline: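 Mice carrying the transplanted tumor received test compound or vehicle. Survival was recorded in each group, and the value is the treated-group measurement divided by that of the vehicle-treated control group.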

Setting [1] is: dose: 100.0 mg/kg/injection, schedule: Q04DX003 (ip), vehicle: saline.
The mark [2] stands for this setting: dose: 200.0 mg/kg/injection, schedule: Q04DX003 (ip), vehicle: saline.
Setting [3] is: dose: 50.0 mg/kg/injection, schedule: Q01DX005 (ip), vehicle: saline.
Setting [4] is: dose: 100.0 mg/kg/injection, schedule: Q01DX005 (ip), vehicle: saline.
Setting [5] is: dose: 200.0 mg/kg/injection, schedule: Q01DX005 (ip), vehicle: saline.
The mark [6] stands for this setting: dose: 6.25 mg/kg/injection, schedule: Q01DX005 (ip), vehicle: Klucel (hydroxypropylcellulose) (HPC).
Where [7] appears, read: dose: 12.5 mg/kg/injection, schedule: Q01DX005 (ip), vehicle: Klucel (hydroxypropylcellulose) (HPC).
[8] abbreviates: dose: 25.0 mg/kg/injection, schedule: Q01DX005 (ip), vehicle: Klucel (hydroxypropylcellulose) (HPC).
Setting [9] is: dose: 400.0 mg/kg/injection, schedule: Q04DX003 (ip), vehicle: saline.

In the case of `[O-][N+](=C1c2ccccc2-c2ccccc21)c1ccccc1`, the T/C is 109 % of control (dose: 50.0 mg/kg/injection, schedule: Q04DX003 (ip), vehicle: saline); 118 % of control under setting [1]; 95 % of control under setting [2].
Regarding `OCCOCCCl`, the T/C reads like this: (dose: 100.0 mg/kg/injection, schedule: Q01DX009 (ip), vehicle: suspension in saline) 96 % of control; (dose: 200.0 mg/kg/injection, schedule: Q01DX009 (ip), vehicle: suspension in saline) 109 % of control; (dose: 400.0 mg/kg/injection, schedule: Q01DX009 (ip), vehicle: suspension in saline) 110 % of control.
In the case of `CN1C(=O)C2(CC2C(=O)c2ccc(Cl)cc2)c2ccccc21` (stereo unspecified), the T/C by setting is: (dose: 2.5 mg/kg/injection, schedule: Q04DX002 (ip), vehicle: saline with Tween-80) 108 % of control; (dose: 5.0 mg/kg/injection, schedule: Q04DX002 (ip), vehicle: saline with Tween-80) 100 % of control; (dose: 10.0 mg/kg/injection, schedule: Q04DX002 (ip), vehicle: saline with Tween-80) 99 % of control.
`CCc1c(O)c2c([nH]c1=O)SC(C)(C)CC2=NCC(C)C`: the T/C is 93 % of control under setting [3], 96 % of control under setting [4] and 94 % of control under setting [5].
As to `NC(N)=NC(N)=Nc1cc2c3ccccc3ccc2c2ccccc12`, the T/C was 100 % of control (dose: 25.0 mg/kg/injection, schedule: Q01DX001 (ip), vehicle: saline with Tween-80); 98 % of control (dose: 50.0 mg/kg/injection, schedule: Q01DX001 (ip), vehicle: saline with Tween-80); 92 % of control (dose: 100.0 mg/kg/injection, schedule: Q01DX001 (ip), vehicle: saline with Tween-80).
Regarding `COC1C(C(=O)CS(=O)Cc2ccccc2)OC2OC(C)(C)OC21` (stereo unspecified), the T/C (dose: 60.0 mg/kg/injection, schedule: Q01DX005 (ip), vehicle: saline) is 104 % of control and 98 % of control; the T/C (dose: 120.0 mg/kg/injection, schedule: Q01DX005 (ip), vehicle: saline) is 103 % of control; the T/C (dose: 240.0 mg/kg/injection, schedule: Q01DX005 (ip), vehicle: saline) is 106 % of control and 108 % of control.
As for `CCOC(=O)Cn1cnc2cc(C)c(C)cc21`, the T/C (dose: 100.0 mg/kg/injection, schedule: Q04DX003 (ip), vehicle: saline with Tween-80) is 90 % of control; the T/C (dose: 200.0 mg/kg/injection, schedule: Q04DX003 (ip), vehicle: saline with Tween-80) was 100 % of control; the T/C (dose: 400.0 mg/kg/injection, schedule: Q04DX003 (ip), vehicle: saline with Tween-80) was 90 % of control.
Regarding `NC(Cc1ccc(Cl)cc1)c1nn[nH]n1` (stereo unspecified), the T/C is, setting by setting: (dose: 25.0 mg/kg/injection, schedule: Q01DX009 (ip), vehicle: saline with Tween-80) 99 % of control; (dose: 50.0 mg/kg/injection, schedule: Q01DX009 (ip), vehicle: saline with Tween-80) 99 % of control; (dose: 100.0 mg/kg/injection, schedule: Q01DX009 (ip), vehicle: saline with Tween-80) 101 % of control.
With `O=C1/C(=C/c2ccc(Cl)cc2)SC(=S)N1C1CC1`, the T/C under setting [6] is 91 % of control; the T/C under setting [7] is 96 % of control; the T/C under setting [8] was 95 % of control; the T/C (dose: 50.0 mg/kg/injection, schedule: Q01DX005 (ip), vehicle: Klucel (hydroxypropylcellulose) (HPC)) was 89 % of control.
Turning to `CCOC(=O)/C=C/C(=O)NNC(=O)OC(C)(C)C`, the T/C is 99 % of control (dose: 12.5 mg/kg/injection, schedule: Q01DX009 (ip), vehicle: other); 93 % of control (dose: 25.0 mg/kg/injection, schedule: Q01DX009 (ip), vehicle: other); 101 % of control (dose: 50.0 mg/kg/injection, schedule: Q01DX009 (ip), vehicle: other); 119 % of control (dose: 100.0 mg/kg/injection, schedule: Q01DX009 (ip), vehicle: other); 108 % of control (dose: 200.0 mg/kg/injection, schedule: Q01DX009 (ip), vehicle: other).
On to `CCN(CC)CCNC(=O)c1cc(Cl)c(C(=O)NO)cc1OC`, for which the T/C is, setting by setting: under setting [6], 87 % of control; under setting [7], 95 % of control; under setting [8], 104 % of control.
In the case of `O=C([O-])CC(=O)[O-].[Cu+2].c1ccc(-c2ccccn2)nc1`, the T/C is 101 % of control (dose: 6.25 mg/kg/injection, schedule: Q01DX005 (ip), vehicle: saline with Tween-80); 99 % of control (dose: 12.5 mg/kg/injection, schedule: Q01DX005 (ip), vehicle: saline with Tween-80); 108 % of control (dose: 25.0 mg/kg/injection, schedule: Q01DX005 (ip), vehicle: saline with Tween-80).
Consider `Cc1ccc(C(=O)N/N=C/c2cccc(C(N)=S)c2)cc1`, for which the T/C is 88 % of control (dose: 100.0 mg/kg/injection, schedule: Q01DX001 (ip), vehicle: saline); 87 % of control (dose: 200.0 mg/kg/injection, schedule: Q01DX001 (ip), vehicle: saline); 86 % of control (dose: 400.0 mg/kg/injection, schedule: Q01DX001 (ip), vehicle: saline).
On to `OCc1cc2ccccc2c2c1OCCOCCOCCOCCOCCOc1ccc3ccccc3c1-2`, for which the T/C reads like this: (dose: 100.0 mg/kg/injection, schedule: Q04DX002 (ip), vehicle: saline with Tween-80) 104 % of control; (dose: 200.0 mg/kg/injection, schedule: Q04DX002 (ip), vehicle: saline with Tween-80) 99 % of control; (dose: 400.0 mg/kg/injection, schedule: Q04DX002 (ip), vehicle: saline with Tween-80) 107 % of control.
For the compound `O=C1C(N2CCCCC2)=C(N2CC2)C(=O)C(N2CCCCC2)=C1N1CC1`, the T/C is, setting by setting: (dose: 2.5 mg/kg/injection, schedule: Q01DX009 (ip), vehicle: saline) 112 % of control; (dose: 10.0 mg/kg/injection, schedule: Q01DX009 (ip), vehicle: saline) 177 % of control.
As to `N=C(N)c1ccc(O)cc1`, the T/C under setting [3] is 102 % of control, the T/C under setting [4] is 111 % of control and the T/C under setting [5] is 112 % of control.
With `CCC1=C(C(C)OCCO)C(=O)c2ccccc2C1=O` (stereo unspecified), the T/C (dose: 50.0 mg/kg/injection, schedule: Q01DX005 (ip), vehicle: saline with Tween-80) was 96 % of control; the T/C (dose: 100.0 mg/kg/injection, schedule: Q01DX005 (ip), vehicle: saline with Tween-80) was 100 % of control; the T/C (dose: 200.0 mg/kg/injection, schedule: Q01DX005 (ip), vehicle: saline with Tween-80) was 94 % of control.
In the case of `Cc1cc(N=Cc2cccs2)cc(Cl)c1O`, the T/C was 101 % of control under setting [1], 99 % of control under setting [2] and 98 % of control under setting [9].
As for `CCN(CC)C(=O)/C(C)=C1/c2ccccc2S(=O)(=O)N1C`, the T/C runs as follows: (dose: 100.0 mg/kg/injection, schedule: Q04DX003 (ip), vehicle: Klucel (hydroxypropylcellulose) (HPC)) 109 % of control; (dose: 200.0 mg/kg/injection, schedule: Q04DX003 (ip), vehicle: Klucel (hydroxypropylcellulose) (HPC)) 94 % of control; (dose: 400.0 mg/kg/injection, schedule: Q04DX003 (ip), vehicle: Klucel (hydroxypropylcellulose) (HPC)) 98 % of control.
As to `CSC(=S)c1ccc(NS(=O)(=O)c2ccccc2)cc1`, the T/C reads like this: under setting [1], 100 % of control; under setting [2], 106 % of control; under setting [9], 105 % of control.
As for `CC(C)(C)C1=CC2(C(C)(C)C)OC2C(=O)C1=O` (stereo unspecified), the T/C reads like this: (dose: 3.12 mg/kg/injection, schedule: Q01DX009 (ip), vehicle: saline with Tween-80) 105 % of control; (dose: 6.25 mg/kg/injection, schedule: Q01DX009 (ip), vehicle: saline with Tween-80) 105 % of control; (dose: 12.5 mg/kg/injection, schedule: Q01DX009 (ip), vehicle: saline with Tween-80) 98 % of control.
As for `O=S(=O)(Nc1ccc2ccc3cccc4ccc1c2c34)c1ccccc1`, the T/C is 98 % of control (dose: 50.0 mg/kg/injection, schedule: Q01DX009 (ip), vehicle: Klucel (hydroxypropylcellulose) (HPC)); 100 % of control (dose: 100.0 mg/kg/injection, schedule: Q01DX009 (ip), vehicle: Klucel (hydroxypropylcellulose) (HPC)); 100 % of control (dose: 200.0 mg/kg/injection, schedule: Q01DX009 (ip), vehicle: Klucel (hydroxypropylcellulose) (HPC)).
With `CCOC(=O)C1=NN(c2ccccc2)C(C(=O)OC)[C@@H]1C(=O)OC` (stereo partly specified), the T/C is, setting by setting: (dose: 60.0 mg/kg/injection, schedule: Q01DX005 (ip), vehicle: saline with Tween-80) 99 % of control; (dose: 120.0 mg/kg/injection, schedule: Q01DX005 (ip), vehicle: saline with Tween-80) 98 % of control; (dose: 240.0 mg/kg/injection, schedule: Q01DX005 (ip), vehicle: saline with Tween-80) 96 % of control.
